Assay results taken from the NIST ThermoML archive (doi:10.1016/j.tca.2008.10.015).
Numbers after ± are expanded uncertainties.

Assays:
[1] = 101.33 kPa, Liquid, conductivity meter
[2] = molar heat capacity at constant pressure; conditions: 101.33 kPa, Liquid, Small sample (50 mg) DSC

| SMILES | electrical conductivity ([1]; 303.2 K) [S/m] | electrical conductivity ([1]; 308.2 K) [S/m] | electrical conductivity ([1]; 313.2 K) [S/m] | electrical conductivity ([1]; 318.2 K) [S/m] | electrical conductivity ([1]; 323.2 K) [S/m] | electrical conductivity ([1]; 328.2 K) [S/m] | electrical conductivity ([1]; 333.2 K) [S/m] | electrical conductivity ([1]; 338.2 K) [S/m] | electrical conductivity ([1]; 343.2 K) [S/m] | electrical conductivity ([1]; 348.2 K) [S/m] | electrical conductivity ([1]; 353.2 K) [S/m] | molar heat capacity at constant pressure ([2]; 303.2 K) [J/K/mol] | molar heat capacity at constant pressure ([2]; 308.2 K) [J/K/mol] | molar heat capacity at constant pressure ([2]; 313.2 K) [J/K/mol] | molar heat capacity at constant pressure ([2]; 318.2 K) [J/K/mol] | molar heat capacity at constant pressure ([2]; 323.2 K) [J/K/mol] | molar heat capacity at constant pressure ([2]; 328.2 K) [J/K/mol] | molar heat capacity at constant pressure ([2]; 333.2 K) [J/K/mol] | molar heat capacity at constant pressure ([2]; 338.2 K) [J/K/mol] | molar heat capacity at constant pressure ([2]; 343.2 K) [J/K/mol] | other results |
| --- | --- | --- | --- | --- | --- | --- | --- | --- | --- | --- | --- | --- | --- | --- | --- | --- | --- | --- | --- | --- | --- |
| CCCCn1cc[n+](C)c1.F[P-](F)(F)(F)(F)F [1-butyl-3-methylimidazolium hexafluorophosphate] | 0.114 ± 0.002 | 0.149 ± 0.003 | 0.193 ± 0.006 | 0.245 ± 0.018 | 0.308 ± 0.006 | 0.383 ± 0.008 | 0.468 ± 0.018 | 0.556 ± 0.022 | 0.664 ± 0.018 | 0.917 ± 0.026 | 1.21 ± 0.024 | 412.06 ± 8.5 | 417.75 ± 11 | 420.59 ± 11 | 423.43 ± 11 | 423.43 ± 11 | 426.27 ± 11 | 429.12 ± 11 | 431.96 ± 11 | 434.8 ± 11 | molar heat capacity at constant pressure ([2]; 348.2 K): 440.48 ± 11 J/K/mol; molar heat capacity at constant pressure ([2]; 353.2 K): 443.32 ± 11 J/K/mol; molar heat capacity at constant pressure ([2]; 358.2 K): 443.32 ± 8.5 J/K/mol |
| CCCCn1cc[n+](C)c1.COS(=O)(=O)[O-] [1-butyl-3-methylimidazolium methyl sulfate] | 0.217 ± 0.02 | 0.276 ± 0.018 | 0.348 ± 0.022 | 0.43 ± 0.014 | 0.522 ± 0.016 | 0.626 ± 0.022 | 0.741 ± 0.016 | 0.867 ± 0.02 | 1.01 ± 0.022 | 1.32 ± 0.026 | 1.67 ± 0.033 | 375.47 ± 7.5 | 380.48 ± 7.5 | 382.98 ± 7.5 | 382.98 ± 7.5 | 385.49 ± 7.5 | 387.99 ± 7.5 | 390.49 ± 7.5 | 393 ± 7.5 | 393 ± 7.5 | molar heat capacity at constant pressure ([2]; 348.2 K): 398 ± 7.5 J/K/mol; molar heat capacity at constant pressure ([2]; 353.2 K): 398 ± 7.5 J/K/mol; molar heat capacity at constant pressure ([2]; 358.2 K): 400.51 ± 7.5 J/K/mol |
| CCCCn1cc[n+](C)c1.F[B-](F)(F)F [1-butyl-3-methylimidazolium tetrafluoroborate] | 0.295 ± 0.016 | 0.364 ± 0.018 | 0.446 ± 0.009 | 0.542 ± 0.011 | 0.651 ± 0.013 | 0.783 ± 0.016 | 0.926 ± 0.019 | 1.08 ± 0.022 | 1.25 ± 0.025 | 1.67 ± 0.033 | 2.18 ± 0.044 | 368.42 ± 6.8 | 370.68 ± 6.8 | 372.94 ± 6.8 | 375.2 ± 6.8 | 377.46 ± 6.8 | 379.72 ± 6.8 | 381.98 ± 6.8 | 384.24 ± 6.8 | 386.5 ± 6.8 | molar heat capacity at constant pressure ([2]; 348.2 K): 388.76 ± 6.8 J/K/mol; molar heat capacity at constant pressure ([2]; 353.2 K): 391.02 ± 6.8 J/K/mol; molar heat capacity at constant pressure ([2]; 358.2 K): 393.28 ± 6.8 J/K/mol |
| CCCCn1cc[n+](C)c1.O=S(=O)([O-])C(F)(F)F [1-butyl-3-methylimidazolium trifluoromethanesulfonate] | 0.23 ± 0.018 | 0.286 ± 0.02 | 0.358 ± 0.081 | 0.437 ± 0.02 | 0.521 ± 0.02 | 0.619 ± 0.018 | 0.724 ± 0.018 | 0.841 ± 0.02 | 0.967 ± 0.02 | 1.25 ± 0.025 | 1.57 ± 0.032 | 443.96 ± 8.6 | 443.96 ± 8.6 | 446.85 ± 8.6 | 449.73 ± 8.6 | 452.61 ± 12 | 452.61 ± 12 | 455.5 ± 12 | 458.38 ± 12 | 461.26 ± 12 | molar heat capacity at constant pressure ([2]; 348.2 K): 464.14 ± 12 J/K/mol; molar heat capacity at constant pressure ([2]; 353.2 K): 467.03 ± 12 J/K/mol; molar heat capacity at constant pressure ([2]; 358.2 K): 469.91 ± 12 J/K/mol |
